Test results taken from patent publication US20250188032A1, “NITROGEN-CONTAINING HETEROCYCLIC COMPOUNDS AND USES THEREOF” (BNH RESEARCH CO., LTD., priority 2022, published 2025).

What was measured:
Assay in all cases: HDAC catalytic activity, fluorogenic substrate
Assay type in all cases: biochemical
Conditions in all cases: 10-dose, 3-fold serial dilution starting at 100 μM, duplicates
HDAC9 = HDAC9 (Homo sapiens, UniProt Q9UKV0)
Description: (§1) The compound (racemate) was resuspended in 100 mM DMSO and tested in a 10-dose IC50 with 3-fold serial dilution starting at 100 μM against HDACs 1-9, and 11. As reference compounds, Trichostatin A (TSA) and TMP269 were tested in a 10-dose IC50 with 3-fold serial dilution starting at 10 μM or 1 μM.
(§2) 10 μM Fluorogenic peptide from p53 residues 379-382 (RHKK(Ac)AMC) was used for the substrate for HDAC 1, 2, 3, and 6, 50 μM Fluorogenic HDAC Class2a Substrate (Trifluoroacetyl Lysine) was used for the substrate for HDAC 4, 5, 7, 9, and 11, 100 μM Fluorogenic peptide from p53 residues 379-382 (RHK(Ac)K(Ac)AMC) was used for the substrate for HDAC8.
(§3) IC50 values were calculated using the GraphPad Prism 4 program based on a sigmoidal dose-response equation and the blank (DMSO) value concentration was entered as 1.00E-12 M for curve fitting.

HDAC8 = target: T1, HDAC8 (Homo sapiens, UniProt Q9BY41)
T1 sequence (Q9BY41 1-377): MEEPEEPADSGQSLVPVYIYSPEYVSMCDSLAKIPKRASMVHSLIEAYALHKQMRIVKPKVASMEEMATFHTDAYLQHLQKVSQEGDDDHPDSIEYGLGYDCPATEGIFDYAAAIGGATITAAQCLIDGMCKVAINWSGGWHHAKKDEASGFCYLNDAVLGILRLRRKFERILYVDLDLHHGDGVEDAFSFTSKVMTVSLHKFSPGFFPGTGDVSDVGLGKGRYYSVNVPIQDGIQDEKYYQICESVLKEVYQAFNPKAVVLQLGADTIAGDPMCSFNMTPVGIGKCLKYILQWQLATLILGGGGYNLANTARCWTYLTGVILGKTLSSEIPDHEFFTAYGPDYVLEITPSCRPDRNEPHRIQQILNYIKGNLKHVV
Description: as §1, §2, §3

HDAC7 = target: T2, HDAC7 (Homo sapiens, UniProt Q8WUI4)
T2 sequence (Q8WUI4 1-952): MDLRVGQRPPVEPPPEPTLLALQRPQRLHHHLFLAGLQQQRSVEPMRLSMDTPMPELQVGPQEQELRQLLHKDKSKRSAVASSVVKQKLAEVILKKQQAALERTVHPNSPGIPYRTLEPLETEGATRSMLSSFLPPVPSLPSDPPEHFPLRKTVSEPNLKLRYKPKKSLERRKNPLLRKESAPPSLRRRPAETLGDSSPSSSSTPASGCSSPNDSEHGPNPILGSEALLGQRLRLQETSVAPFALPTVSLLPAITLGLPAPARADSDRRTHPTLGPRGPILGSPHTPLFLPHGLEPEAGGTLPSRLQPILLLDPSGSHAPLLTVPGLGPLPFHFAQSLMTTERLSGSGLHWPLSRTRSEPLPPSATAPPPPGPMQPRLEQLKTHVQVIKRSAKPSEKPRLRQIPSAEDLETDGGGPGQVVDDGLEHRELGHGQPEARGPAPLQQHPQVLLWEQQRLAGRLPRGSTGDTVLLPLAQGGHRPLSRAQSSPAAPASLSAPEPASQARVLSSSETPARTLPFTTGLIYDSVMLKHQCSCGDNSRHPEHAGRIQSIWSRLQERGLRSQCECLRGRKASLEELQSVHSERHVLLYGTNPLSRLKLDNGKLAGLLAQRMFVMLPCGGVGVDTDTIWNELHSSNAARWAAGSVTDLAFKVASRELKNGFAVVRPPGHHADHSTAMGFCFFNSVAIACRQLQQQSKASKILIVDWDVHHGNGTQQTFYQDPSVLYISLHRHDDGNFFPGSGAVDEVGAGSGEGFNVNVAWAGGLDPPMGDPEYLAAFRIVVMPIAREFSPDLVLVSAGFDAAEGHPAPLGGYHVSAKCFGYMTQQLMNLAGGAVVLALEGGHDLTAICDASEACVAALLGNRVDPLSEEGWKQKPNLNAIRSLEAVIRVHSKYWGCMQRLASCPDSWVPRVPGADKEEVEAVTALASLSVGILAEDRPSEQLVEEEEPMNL
Description: as §1, §2, §3

HDAC6 = target: T3, HDAC6 (Homo sapiens, UniProt Q9UBN7)
T3 sequence (Q9UBN7 1-1215): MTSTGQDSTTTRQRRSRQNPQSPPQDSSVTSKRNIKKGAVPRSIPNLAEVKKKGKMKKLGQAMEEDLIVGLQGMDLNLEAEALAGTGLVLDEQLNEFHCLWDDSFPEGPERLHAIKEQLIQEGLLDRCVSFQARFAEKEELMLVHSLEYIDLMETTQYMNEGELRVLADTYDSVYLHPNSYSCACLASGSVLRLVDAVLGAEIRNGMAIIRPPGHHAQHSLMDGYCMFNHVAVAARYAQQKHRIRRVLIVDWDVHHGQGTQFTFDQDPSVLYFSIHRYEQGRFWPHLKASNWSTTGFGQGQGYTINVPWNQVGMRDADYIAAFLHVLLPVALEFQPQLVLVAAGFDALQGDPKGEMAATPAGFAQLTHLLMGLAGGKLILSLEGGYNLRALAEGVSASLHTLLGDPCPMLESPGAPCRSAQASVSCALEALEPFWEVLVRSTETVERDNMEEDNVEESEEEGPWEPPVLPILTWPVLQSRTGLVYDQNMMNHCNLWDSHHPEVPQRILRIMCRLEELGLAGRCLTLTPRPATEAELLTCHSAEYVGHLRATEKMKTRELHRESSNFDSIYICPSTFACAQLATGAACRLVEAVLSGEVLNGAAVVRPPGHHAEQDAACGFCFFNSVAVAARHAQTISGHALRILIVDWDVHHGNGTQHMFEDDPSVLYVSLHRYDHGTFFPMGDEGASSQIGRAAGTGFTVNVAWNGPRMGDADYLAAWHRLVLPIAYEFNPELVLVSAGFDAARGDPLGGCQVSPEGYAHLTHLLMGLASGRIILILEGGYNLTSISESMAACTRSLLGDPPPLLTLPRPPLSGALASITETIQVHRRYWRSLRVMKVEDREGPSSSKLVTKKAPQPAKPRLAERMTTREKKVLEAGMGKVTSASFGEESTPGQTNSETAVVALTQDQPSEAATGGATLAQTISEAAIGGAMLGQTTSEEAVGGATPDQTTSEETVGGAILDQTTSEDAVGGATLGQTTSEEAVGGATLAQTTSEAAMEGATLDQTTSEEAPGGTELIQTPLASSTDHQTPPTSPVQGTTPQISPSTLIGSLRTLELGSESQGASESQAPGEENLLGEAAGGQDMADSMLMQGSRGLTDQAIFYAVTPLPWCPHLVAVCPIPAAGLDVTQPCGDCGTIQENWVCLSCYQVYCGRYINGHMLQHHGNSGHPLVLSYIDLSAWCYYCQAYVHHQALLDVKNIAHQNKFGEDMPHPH
Description: as §1, §2, §3

Sequence of HDAC9 (Q9UKV0 whole entry): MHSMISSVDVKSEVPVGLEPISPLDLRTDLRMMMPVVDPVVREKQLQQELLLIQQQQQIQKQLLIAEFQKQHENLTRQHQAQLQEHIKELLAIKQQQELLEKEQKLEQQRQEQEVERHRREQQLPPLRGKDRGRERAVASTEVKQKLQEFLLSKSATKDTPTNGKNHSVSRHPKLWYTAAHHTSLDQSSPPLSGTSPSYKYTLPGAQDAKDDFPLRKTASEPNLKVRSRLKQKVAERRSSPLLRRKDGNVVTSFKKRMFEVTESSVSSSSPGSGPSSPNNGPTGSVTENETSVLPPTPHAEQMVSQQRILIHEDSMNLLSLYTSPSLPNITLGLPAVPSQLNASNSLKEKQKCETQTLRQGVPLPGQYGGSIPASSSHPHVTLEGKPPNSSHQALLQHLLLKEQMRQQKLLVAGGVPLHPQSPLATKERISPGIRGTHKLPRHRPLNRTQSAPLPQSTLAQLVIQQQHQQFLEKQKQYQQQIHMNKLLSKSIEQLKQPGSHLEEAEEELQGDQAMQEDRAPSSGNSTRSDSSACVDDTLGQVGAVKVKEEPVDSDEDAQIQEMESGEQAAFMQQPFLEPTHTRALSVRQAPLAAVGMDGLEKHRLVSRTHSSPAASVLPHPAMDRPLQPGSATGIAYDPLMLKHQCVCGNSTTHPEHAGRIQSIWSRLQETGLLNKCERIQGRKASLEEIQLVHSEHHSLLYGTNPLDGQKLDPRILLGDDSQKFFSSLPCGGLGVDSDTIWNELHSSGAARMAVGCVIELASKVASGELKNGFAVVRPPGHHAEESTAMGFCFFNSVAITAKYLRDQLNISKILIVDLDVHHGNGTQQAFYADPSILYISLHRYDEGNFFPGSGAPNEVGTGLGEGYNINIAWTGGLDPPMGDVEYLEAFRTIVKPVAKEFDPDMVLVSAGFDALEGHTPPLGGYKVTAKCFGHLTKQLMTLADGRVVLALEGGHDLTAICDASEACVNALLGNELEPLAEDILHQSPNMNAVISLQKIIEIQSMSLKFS

Inhibitory effect on HDAC9 catalytic activity (HDAC9): did not show any inhibitory effect
Inhibitory effect on HDAC8 catalytic activity (HDAC8): did not show any inhibitory effect
Inhibitory effect on HDAC7 catalytic activity (HDAC7): did not show any inhibitory effect
Inhibitory effect on HDAC6 catalytic activity (HDAC6): did not show any inhibitory effect
SMILES: CC1CCC(C(=O)O)CN1C(=O)Cc1ccc(F)cc1Cl (racemic) [BnH12001, 1-(2-(2-chloro-4-fluorophenyl)acetyl)-6-methylpiperidine-3-carboxylic acid]
